The source of these data is US20090317491A1, “MANUFACTURING METHOD OF MEDICAL STERILIZED ISOTONIC SOLUTION HAVING LOW-CONCENTRATEDLY CONTROLLED FREE CHLORINE INCLUDING HYPOCHLOROUS ACID THEREIN” (priority 2007, published 2009).

One data set relates to Haemophilus influenzae. The note with it: normal temperature; cited from earlier work.
In the next data set the test system is Serratia marcescens. The note with it: normal temperature; cited from earlier work.
The next data set deals with Staphylococcus hominis. The note with it: normal temperature; cited from earlier work.
The conditions of data set [1]: inside of a human body / mammal bodies; cited from earlier work.
A short description of data set [2]: Half-life time of HOCl in water / outside the body (FIG. 16). The data set is classed as physicochemical. The note with it: water (medical sterilized normal saline), neutral or subacid, outside of human body. Here is the method:
Especially, HOCl generated in the medical sterilized normal saline is very unstable in neutral or subacid area, and thus is tend to be reduced to a half only for 3 minutes. Therefore, the free chlorines should be supplied to patients within 3 minutes from manufacturing the medical normal saline. […] Therefore, prompt supply into the body right after manufacturing the medical normal saline can obtain enough time to sterilize or kill germs, fungi, bacteria, the causes of diseases.
FIG. 16 is a graph of the amount of the free chlorine in accordance with the 20 seconds operation time.

The test system of data set [3] is Staphylococcus saprophyticus. The note with it: normal temperature; cited from earlier work.
Data set [4] deals with Vancomycin-resistent Enterococcus faecium. The note with it: normal temperature; cited from earlier work.
The test system of data set [5] is Corynebacterium amycolatum. The note with it: normal temperature; cited from earlier work.
The subject of a further data set is Staphylococcus aureus. The note with it: normal temperature; cited from earlier work.
Data set [6] deals with Staphylococcus haemolyticus. The note with it: normal temperature; cited from earlier work.
The test system of a further data set is Enterobacter aerogenes. The note with it: normal temperature; cited from earlier work.
For data set [7] the following is noted: mucosa of a nose and eyes; cited from earlier work.
A further data set concerns Proteus mirabilis. The note with it: normal temperature; cited from earlier work.
The next data set concerns Sterptococcus pyogenes. The note with it: normal temperature; cited from earlier work.
The conditions of data set [8]: HOCl versus OCl−; cited from earlier work.
Data set [9] relates to Staphylococcus epidermidis. The note with it: normal temperature; cited from earlier work.
Data set [10] concerns Methicillin-resistent Staphylococcus aureus. The note with it: normal temperature; cited from earlier work.
Another data set has as its system Klebsiella pneumoniae. The note with it: normal temperature; cited from earlier work.
The next data set concerns Micrococcus luteus. The note with it: normal temperature; cited from earlier work.
The subject of a further data set is Escherichia coli. The note with it: normal temperature; cited from earlier work.
Another data set deals with Pseudomonas aeruginosa. The note with it: normal temperature; cited from earlier work.

`OCl` [HOCl, Hypochlorous acid]: the MBC was 0.338 ppm in the data set with Haemophilus influenzae; 0.169 ppm in the data set with Serratia marcescens; 1.4 ppm in the data set with Staphylococcus hominis; 0.35 ppm in [3]; 2.73 ppm in data set [4]; 0.169 ppm in [5]. For the same compound, the MBC in the data set with Staphylococcus aureus is 0.173 ppm; in [6], 0.338 ppm; in the data set on Enterobacter aerogenes, 0.676 ppm; in the data set with Proteus mirabilis it was 0.340 ppm; in the data set with Sterptococcus pyogenes, 0.169 ppm; in [9], 0.338 ppm. For the same compound, the MBC in data set [10] is listed as 0.682 ppm; with Klebsiella pneumoniae, 1.7 ppm; in the data set with Micrococcus luteus, 2.77 ppm; in the data set with Escherichia coli, 0.7 ppm; in the data set with Pseudomonas aeruginosa, 0.35 ppm. Also, the half-life time in [1] was 44 h. In data set [2], the half-life is 3 min. In data set [7], the “concentration of HOCl that causes trouble on sensitive parts of human body and stench of the solution” value is “over 6 ppm”. Further, the “sterilizing efficacy relative to OCl−” value in data set [8] was 80 times.

Broadly, the half-life is how long it takes for the measured level to halve.
